Article doi:10.1101/2020.08.05.237982v3, “ThermoBRET: a ligand-engagement nanoscale thermostability assay applied to GPCRs” (biorxiv, 2023)

Target: T1, CB2 (Nluc-CB2, tsNluc-CB2) (Homo sapiens, UniProt P34972)
T1 construct: gene CNR2; N-terminal cleaved signal peptide, TwinStrep tag and Nluc or tsNluc
Format: binding
Conditions: Nluc-CB2, 20 µM ligand, DDM/CHAPSO/CHS

T1 sequence (P34972 whole entry): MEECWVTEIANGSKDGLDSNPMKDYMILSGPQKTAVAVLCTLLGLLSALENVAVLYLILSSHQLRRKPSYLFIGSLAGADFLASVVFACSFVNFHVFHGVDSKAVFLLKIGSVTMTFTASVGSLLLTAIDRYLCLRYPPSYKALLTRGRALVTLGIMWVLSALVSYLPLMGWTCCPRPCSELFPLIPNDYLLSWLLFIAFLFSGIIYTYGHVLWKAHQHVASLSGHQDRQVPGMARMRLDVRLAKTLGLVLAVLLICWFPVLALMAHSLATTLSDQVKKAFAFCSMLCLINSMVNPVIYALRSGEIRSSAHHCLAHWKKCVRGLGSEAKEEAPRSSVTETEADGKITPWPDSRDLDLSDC

SMILES | dTm
CCCCCCC(C)(C)c1cc(OC)c([C@@H]2C=C(CO)[C@@H]3C[C@H]2C3(C)C)c(OC)c1 [HU308] | HU308 and SR144528 also produced appreciable increases in thermostability
Cc1ccc(Cn2nc(C(=O)N[C@@H]3C(C)(C)[C@@H]4CC[C@@]3(C)C4)cc2-c2ccc(Cl)c(C)c2)cc1 [SR144528] | HU308 and SR144528 also produced appreciable increases in thermostability
